Experimental data: patent publication US11098038B2, “Imidazole-based anticancer agents and derivatives thereof, and methods of making and using same” (The University of Toledo, priority 2017, dated 2021)

Tests used:
A549/ATCC = assay: NCI 60 screen, A549/ATCC; type: cell-based; settings: Homo sapiens, Non-Small Cell Lung
Protocol: (§1) The compounds synthesized were tested at the National Cancer Institute (NCI) for anti-proliferative activity in the 60 human tumor cell line assay.

SK-OV-3 = assay: NCI 60 screen, SK-OV-3; type: cell-based; settings: Homo sapiens, Ovarian
Protocol: as §1

TK-10 = assay: NCI 60 screen, TK-10; type: cell-based; settings: Homo sapiens, Renal
Protocol: as §1

HT29 = assay: NCI 60 screen, HT29; type: cell-based; settings: Homo sapiens, HT-29, Colon
Protocol: as §1

U251 = assay: NCI 60 screen, U251; type: cell-based; settings: Homo sapiens, U-251, CNS
Protocol: as §1

DU-145 = assay: NCI 60 screen, DU-145; type: cell-based; settings: Homo sapiens, Prostatic
Protocol: as §1

EKVX = assay: NCI 60 screen, EKVX; type: cell-based; settings: Homo sapiens, Non-Small Cell Lung
Protocol: as §1

A498 = assay: NCI 60 screen, A498; type: cell-based; settings: Homo sapiens, Renal
Protocol: as §1

MDA-MB-468 = assay: NCI 60 screen, MDA-MB-468; type: cell-based; settings: Homo sapiens, Breast
Protocol: as §1

SR = assay: NCI 60 screen, SR; type: cell-based; settings: Homo sapiens, Leukemia
Protocol: as §1

SK-MEL-2 [1] = assay: NCI 60 screen, SK-MEL-2 (second line); type: cell-based; settings: Homo sapiens; Melanoma, SK-MEL-2 (second of two lines so named, r38)
Protocol: as §1

NCI-322M = assay: NCI 60 screen, NCI-322M; type: cell-based; settings: Homo sapiens, Non-Small Cell Lung
Protocol: as §1

LOX IMVI = assay: NCI 60 screen, LOX IMVI; type: cell-based; settings: Homo sapiens, Melanoma
Protocol: as §1

SN12C = assay: NCI 60 screen, SN12C; type: cell-based; settings: Homo sapiens, Renal
Protocol: as §1

NCI-H226 = assay: NCI 60 screen, NCI-H226; type: cell-based; settings: Homo sapiens, Non-Small Cell Lung
Protocol: as §1

MDA-MB-435 = assay: NCI 60 screen, MDA-MB-435; type: cell-based; settings: Homo sapiens, Melanoma
Protocol: as §1

HS 578T = assay: NCI 60 screen, HS 578T; type: cell-based; settings: Homo sapiens, Breast
Protocol: as §1

MDA-MB-231/ATCC = assay: NCI 60 screen, MDA-MB-231/ATCC; type: cell-based; settings: Homo sapiens, Breast
Protocol: as §1

HL-60(TB) = assay: NCI 60 screen, HL-60(TB); type: cell-based; settings: Homo sapiens, Leukemia
Protocol: as §1

PC-3 = assay: NCI 60 screen, PC-3; type: cell-based; settings: Homo sapiens, Prostatic
Protocol: as §1

RXF393 = assay: NCI 60 screen, RXF393; type: cell-based; settings: Homo sapiens, RXF 393, Renal
Protocol: as §1

CCRF-CEM = assay: NCI 60 screen, CCRF-CEM; type: cell-based; settings: Homo sapiens, Leukemia
Protocol: as §1

UO-31 = assay: NCI 60 screen, UO-31; type: cell-based; settings: Homo sapiens, Renal
Protocol: as §1

NCI-460 = assay: NCI 60 screen, NCI-460; type: cell-based; settings: Homo sapiens, Non-Small Cell Lung
Protocol: as §1

NCI/ADR-RES = assay: NCI 60 screen, NCI/ADR-RES; type: cell-based; settings: Homo sapiens, Ovarian
Protocol: as §1

UACC-62 = assay: NCI 60 screen, UACC-62; type: cell-based; settings: Homo sapiens, Melanoma
Protocol: as §1

HOP-92 = assay: NCI 60 screen, HOP-92; type: cell-based; settings: Homo sapiens, Non-Small Cell Lung
Protocol: as §1

MALME-3M = assay: NCI 60 screen, MALME-3M; type: cell-based; settings: Homo sapiens, Melanoma
Protocol: as §1

IGROV1 = assay: NCI 60 screen, IGROV1; type: cell-based; settings: Homo sapiens, IGROV-1, Ovarian
Protocol: as §1

SNB-75 = assay: NCI 60 screen, SNB-75; type: cell-based; settings: Homo sapiens, CNS
Protocol: as §1

COLO 205 = assay: NCI 60 screen, COLO 205; type: cell-based; settings: Homo sapiens, Colon
Protocol: as §1

BT-549 = assay: NCI 60 screen, BT-549; type: cell-based; settings: Homo sapiens, Breast
Protocol: as §1

KM12 = assay: NCI 60 screen, KM12; type: cell-based; settings: Homo sapiens, Colon
Protocol: as §1

MOLT-4 = assay: NCI 60 screen, MOLT-4; type: cell-based; settings: Homo sapiens, Leukemia
Protocol: as §1

HCT-116 = assay: NCI 60 screen, HCT-116; type: cell-based; settings: Homo sapiens, Colon
Protocol: as §1

OVCAR-3 = assay: NCI 60 screen, OVCAR-3; type: cell-based; settings: Homo sapiens, Ovarian
Protocol: as §1

786-0 = assay: NCI 60 screen, 786-0; type: cell-based; settings: Homo sapiens, Renal
Protocol: as §1

SF-295 = assay: NCI 60 screen, SF-295; type: cell-based; settings: Homo sapiens, CNS
Protocol: as §1

UACC-257 = assay: NCI 60 screen, UACC-257; type: cell-based; settings: Homo sapiens, Melanoma
Protocol: as §1

SW-620 = assay: NCI 60 screen, SW-620; type: cell-based; settings: Homo sapiens, Colon
Protocol: as §1

ACHN = assay: NCI 60 screen, ACHN; type: cell-based; settings: Homo sapiens, Renal
Protocol: as §1

HCT15 = assay: NCI 60 screen, HCT15; type: cell-based; settings: Homo sapiens, HCT-15, Colon
Protocol: as §1

OVCAR-5 = assay: NCI 60 screen, OVCAR-5; type: cell-based; settings: Homo sapiens, Ovarian
Protocol: as §1

HCC-2998 = assay: NCI 60 screen, HCC-2998; type: cell-based; settings: Homo sapiens, Colon
Protocol: as §1

MCF7 = assay: NCI 60 screen, MCF7; type: cell-based; settings: Homo sapiens, Breast
Protocol: as §1

OVCAR-8 = assay: NCI 60 screen, OVCAR-8; type: cell-based; settings: Homo sapiens, Ovarian
Protocol: as §1

HOP-62 = assay: NCI 60 screen, HOP-62; type: cell-based; settings: Homo sapiens, Non-Small Cell Lung
Protocol: as §1

SF-268 = assay: NCI 60 screen, SF-268; type: cell-based; settings: Homo sapiens, CNS
Protocol: as §1

SF-539 = assay: NCI 60 screen, SF-539; type: cell-based; settings: Homo sapiens, CNS
Protocol: as §1

NCI-H23 = assay: NCI 60 screen, NCI-H23; type: cell-based; settings: Homo sapiens, Non-Small Cell Lung
Protocol: as §1

NCI-H522 = assay: NCI 60 screen, NCI-H522; type: cell-based; settings: Homo sapiens, Non-Small Cell Lung
Protocol: as §1

SK-MEL-5 = assay: NCI 60 screen, SK-MEL-5; type: cell-based; settings: Homo sapiens, Melanoma
Protocol: as §1

OVCAR-4 = assay: NCI 60 screen, OVCAR-4; type: cell-based; settings: Homo sapiens, Ovarian
Protocol: as §1

SNB-19 = assay: NCI 60 screen, SNB-19; type: cell-based; settings: Homo sapiens, CNS
Protocol: as §1

RPMI-8226 = assay: NCI 60 screen, RPMI-8226; type: cell-based; settings: Homo sapiens, Leukemia
Protocol: as §1

T-47D = assay: NCI 60 screen, T-47D; type: cell-based; settings: Homo sapiens, T47D, Breast
Protocol: as §1

SK-MEL-2 [2] = assay: NCI 60 screen, SK-MEL-2 (first line); type: cell-based; settings: Homo sapiens; Melanoma, SK-MEL-2 (first of two lines so named, r37)
Protocol: as §1

CAKI-1 = assay: NCI 60 screen, CAKI-1; type: cell-based; settings: Homo sapiens, Renal
Protocol: as §1

Structure (SMILES): Cn1ccnc1C(=O)/C=C/c1ccc(CC(=O)Nc2ccc(C(F)(F)F)cc2)cc1 [Compound 26, (E)-2-(4-(3-(1-methyl-1H-imidazol-2-yl)-3-oxoprop-1-en-1-yl)phenyl)-N-(4-(trifluoromethyl)phenyl) acetamide]
- melting point: 222 to 226 °C

Structure (SMILES): Cn1ccnc1C(=O)/C=C/c1ccc(CC(=O)NC2CCCCC2)cc1 [Compound 29, (E)-N-cyclohexyl-2-(4-(3-(1-methyl-1-H-imidazol-2-yl)-3-oxoprop-1-en-1-yl)phenyl) acetamide]
- melting point: 182.5 °C

Structure (SMILES): O=C(Cc1ccc(/C=C/C(=O)c2ncc[nH]2)cc1)Nc1ccccc1 [Compound 21, (E)-2-(4-(3-(1H-imidazol-2-yl)-3-oxoprop-1-en-1-yl)phenyl)-N-phenylacetamide]
- melting point: 211 to 214 °C

Structure (SMILES): Cc1ccc(NC(=O)Cc2ccc(/C=C/C(=O)c3ncc[nH]3)cc2)cc1 [Compound 20, (E)-2-(4-(3-(1H-imidazol-2-yl)-3-oxoprop-1-en-1-yl)phenyl)-N-(p-tolyl)acetamide]
- GI50 (A549/ATCC): 9.14 µM
- GI50 (SK-OV-3): 12.8 µM
- GI50 (TK-10): 7.93 µM
- GI50 (HT29): 0.955 µM
- GI50 (U251): 1.59 µM
- GI50 (DU-145): 4.56 µM
- melting point: 218.5 °C
- GI50 (EKVX): 1.35 µM
- GI50 (A498): 19.9 µM
- GI50 (MDA-MB-468): 3.3 µM
- GI50 (SR): 0.99 µM
- GI50 (SK-MEL-2 [1]): 11.5 µM
- GI50 (NCI-322M): 6.06 µM
- GI50 (LOX IMVI): 1.29 µM
- GI50 (SN12C): 5.91 µM
- GI50 (NCI-H226): 9.59 µM
- GI50 (MDA-MB-435): 5.68 µM
- GI50 (HS 578T): 13.6 µM
- GI50 (MDA-MB-231/ATCC): 9.46 µM
- GI50 (HL-60(TB)): 5.88 µM
- GI50 (PC-3): 7.1 µM
- GI50 (RXF393): 7.68 µM
- GI50 (CCRF-CEM): 4.67 µM
- GI50 (UO-31): 3.01 µM
- GI50 (NCI-460): 6.32 µM
- GI50 (NCI/ADR-RES): 6.73 µM
- GI50 (UACC-62): 8.29 µM
- GI50 (HOP-92): 1.85 µM
- GI50 (MALME-3M): 25 µM
- GI50 (IGROV1): 6.47 µM
- GI50 (SNB-75): 7 µM
- GI50 (COLO 205): 7.27 µM
- GI50 (BT-549): 6.42 µM
- GI50 (KM12): 3.09 µM
- GI50 (MOLT-4): 5.33 µM
- GI50 (HCT-116): 3.28 µM
- GI50 (OVCAR-3): 1.67 µM
- GI50 (786-0): 4.28 µM
- GI50 (SF-295): 7.9 µM
- GI50 (UACC-257): 25 µM
- GI50 (SW-620): 5.22 µM
- GI50 (ACHN): 6.51 µM
- GI50 (HCT15): 2.01 µM
- GI50 (OVCAR-5): 6.84 µM
- GI50 (HCC-2998): 6.73 µM
- GI50 (MCF7): 1.15 µM
- GI50 (OVCAR-8): 7.24 µM
- GI50 (HOP-62): 5.24 µM
- GI50 (SF-268): 5.32 µM
- GI50 (SF-539): 4.76 µM
- GI50 (NCI-H23): 5.85 µM
- GI50 (NCI-H522): 4.54 µM
- GI50 (SK-MEL-5): 18.3 µM
- GI50 (OVCAR-4): 10.4 µM
- GI50 (SNB-19): 6.65 µM
- GI50 (RPMI-8226): 1.79 µM
- GI50 (T-47D): 6.47 µM
- GI50 (SK-MEL-2 [2]): 18.1 µM
- GI50 (CAKI-1): 9.63 µM

Structure (SMILES): O=C(Cc1ccc(/C=C/C(=O)c2ncc[nH]2)cc1)Nc1cc(F)c(F)c(F)c1 [Compound 33, (E)-2-(4-(3-(1H-imidazol-2-yl)-3-oxoprop-1-en-1-yl)phenyl)-N-(3,4,5-trifluorophenyl) acetamide]
- melting point: 255 °C

Structure (SMILES): O=C(Cc1ccc(/C=C/C(=O)c2ncc[nH]2)cc1)Nc1cccc2ccccc12 [Compound 17, (E)-2-(4-(3-(1H-imidazol-2-yl)-3-oxoprop-1-en-1-yl)phenyl)-N-(naphthalen-1-yl)acetamide]
- melting point: 229 to 230 °C
